Test results from US11098038B2, “Imidazole-based anticancer agents and derivatives thereof, and methods of making and using same” (The University of Toledo, priority 2017, dated 2021).

How the values were obtained:
Type in all cases: cell-based
HCT15 = test: NCI 60 screen, HCT15; conditions: Homo sapiens, HCT-15, Colon
Method: (§1) The compounds synthesized were tested at the National Cancer Institute (NCI) for anti-proliferative activity in the 60 human tumor cell line assay.

CAKI-1 = test: NCI 60 screen, CAKI-1; conditions: Homo sapiens, Renal
Method: as §1

HS 578T = test: NCI 60 screen, HS 578T; conditions: Homo sapiens, Breast
Method: as §1

BT-549 = test: NCI 60 screen, BT-549; conditions: Homo sapiens, Breast
Method: as §1

NCI/ADR-RES = test: NCI 60 screen, NCI/ADR-RES; conditions: Homo sapiens, Ovarian
Method: as §1

CCRF-CEM = test: NCI 60 screen, CCRF-CEM; conditions: Homo sapiens, Leukemia
Method: as §1

COLO 205 = test: NCI 60 screen, COLO 205; conditions: Homo sapiens, Colon
Method: as §1

SF-268 = test: NCI 60 screen, SF-268; conditions: Homo sapiens, CNS
Method: as §1

T-47D = test: NCI 60 screen, T-47D; conditions: Homo sapiens, T47D, Breast
Method: as §1

NCI-H226 = test: NCI 60 screen, NCI-H226; conditions: Homo sapiens, Non-Small Cell Lung
Method: as §1

NCI-322M = test: NCI 60 screen, NCI-322M; conditions: Homo sapiens, Non-Small Cell Lung
Method: as §1

MDA-MB-468 = test: NCI 60 screen, MDA-MB-468; conditions: Homo sapiens, Breast
Method: as §1

SNB-75 = test: NCI 60 screen, SNB-75; conditions: Homo sapiens, CNS
Method: as §1

A549/ATCC = test: NCI 60 screen, A549/ATCC; conditions: Homo sapiens, Non-Small Cell Lung
Method: as §1

HeLa cells = test: Mitotic arrest of HeLa cells observed under the microscope; conditions: 10 μM
Method: FIG. 6: Color images showing untreated HeLa cells used as a control. Mitotic duration: 60 minutes. Each frame was taken after 12 minute intervals. Frame 5 to frame 9 show cells' progression through mitosis.
FIG. 7: Color images showing HeLa cells treated with 10 μM of compound 25. Mitotic duration: 27.4 hr.
Although developed as HDAC inhibitors, the compounds herein may actually act by multiple mechanisms. […] Snap shots were taken at a 12 minute interval.
A cell that is rounded up in frame 2 enters mitosis (FIG. 7).

IGROV1 = test: NCI 60 screen, IGROV1; conditions: Homo sapiens, IGROV-1, Ovarian
Method: as §1

O=C(Cc1ccc(/C=C/C(=O)c2ncc[nH]2)cc1)Nc1ccc(Cl)cc1 [Compound 25, (E)-2-(-4 (3-(1H-imidazol-2-yl)-3-oxoprop-1-en-1-yl)phenyl)-N-(4-chlorophenyl)acetamide]
GI50 (HCT15): 0.879 µM | GI50 (CAKI-1): 4.88 µM | GI50 (HS 578T): 18.8 µM | GI50 (BT-549): 3.46 µM | GI50 (NCI/ADR-RES): 5.02 µM | GI50 (CCRF-CEM): 1.08 µM | GI50 (COLO 205): 3.01 µM | GI50 (SF-268): 1.65 µM | GI50 (T-47D): 3.24 µM | GI50 (NCI-H226): 7.5 µM | GI50 (NCI-322M): 4 µM | GI50 (MDA-MB-468): 1.68 µM | GI50 (SNB-75): 3.63 µM | GI50 (A549/ATCC): 6.9 µM | Fate of arrested cells (HeLa cells): eventually underwent apoptosis | Mitotic arrest (progress through cell division) (HeLa cells; monitored for over 27.4 hours): did not proceed with cell division | Mitotic duration (HeLa cells; untreated control 60 minutes): 27.4 h | GI50 (IGROV1): 3.59 µM
